In patent US7943628B2, “Pyrimidine derivatives” (Pfizer Limited, priority 2005, dated 2011):

Assays:
[1] = target: T1, histamine H4 receptor (Homo sapiens, UniProt Q9H3N8); assay: H4 binding, method 2 ([3H]-histamine binding with Ysi WGA beads on CHO cell membranes); conditions: H4 binding, method 2, Ki calculated from IC50 (Cheng-Prussoff)
T1 construct: expressed in transfected cells; host or cells: CHO cells
Experimental: Cell pellets from CHO cells expressing the histamine H4 receptor were homogenised in ice-cold 50 mM Tris-HCl/0.5 mM CaCl2 buffer containing a protease inhibitor cocktail (Roche®, United Kingdom) using a ground glass homogeniser. Homogenates were centrifuged at 48000 g for 30 min at 4° C. The membrane pellet was resuspended in fresh buffer and the centrifugation step was repeated as described above. The membrane pellet was resuspended in 50 mM Tris-HCl in the same volume as the original cell pellet. Aliquots of membrane preparations were stored at −80° C. and were used for [^3H]-Histamine binding experiments.
Cell membranes (15 μg/well) were pre-incubated for 120 min shaking at 4° C. with Ysi WGA beads (250 μg/well) in 50 mM Tris-HCl (pH 7.4) followed by centrifugation at 1500 rpm for 5 minutes and resuspension in 50 mM Tris-HCl (pH 7.4). The membrane/bead mixture (15 μg membrane/250 μg beads well) was incubated for 90 minutes shaking at room temperature with 6.5 nM [2,5-^3H] Histamine dihydrochloride (30-60 Ci/mmol) in 50 mM Tris-HCl (pH 7.4), with or without competing H4 ligands. Non-specific binding was defined with 10 μM JNJ7777120. Bound radiolabel was determined using scintillation counting techniques after 90 minutes.

[2] = target: T1, histamine H4 receptor; assay: H4 binding, method 1 ([3H]-histamine filtration binding on CHO cell membranes); conditions: for Method 1, activity at top dose (10 μM): top dose 10 μM; for inhibition at 20 µM: 1.5 h; for Ki: H4 binding, method 1, Ki calculated from IC50 (Cheng-Prussoff)
Procedure, shortened: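 Membranes from CHO cells expressing human H4 receptor (20-35 μg/well) incubated 90 min at room temperature with 3 nM [3H]-histamine in 50 mM Tris-HCl pH 7.4, ± competitor. Bound label separated by filtration on PEI-soaked GF/B filters and counted by scintillation; non-specific binding with 10 μM JNJ7777120.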

T1 sequence (Q9H3N8 whole entry): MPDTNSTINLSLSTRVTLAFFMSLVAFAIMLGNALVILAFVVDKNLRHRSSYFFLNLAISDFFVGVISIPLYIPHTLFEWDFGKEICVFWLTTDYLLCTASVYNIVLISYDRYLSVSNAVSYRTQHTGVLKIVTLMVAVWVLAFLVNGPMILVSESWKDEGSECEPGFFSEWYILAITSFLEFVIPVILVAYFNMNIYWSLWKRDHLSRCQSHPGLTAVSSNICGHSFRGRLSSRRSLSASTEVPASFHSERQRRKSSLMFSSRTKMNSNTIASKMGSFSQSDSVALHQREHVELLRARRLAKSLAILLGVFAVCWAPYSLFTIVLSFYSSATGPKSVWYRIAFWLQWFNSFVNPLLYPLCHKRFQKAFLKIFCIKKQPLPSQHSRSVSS

Row | Compound | Ki ([1]; Method 2 (Ki (nM))) [nM] | inhibition at 20 µM [2] [%] | also measured
1 | CC(C)(C)CCNc1cc(N2C[C@H]3CCCN[C@H]3C2)nc(N)n1 (racemic) [Example 23, N^4-(3,3-Dimethylbutyl)-6-[(4aR*,7aR*)-octahydro-6H-pyrrolo[3,4-b]pyridin-6-yl]pyrimidine-2,4-diamine] | – | – | Ki ([1]; read-out: Method 2 (Ki (nM))): 824 nM
2 | CC(C)Nc1cc(N2C[C@H]3CCCN[C@H]3C2)nc(N)n1 (racemic) [Example 24, N^4Isopropyl-6-[(4aR*,7aR*)-octahydro6H-pyrrolor[3,4-b]pyridin-6-yl]pyrimidine-2,4-diamine] | 30.8 | – | –
3 | CNc1cc(N2C[C@H]3CCCN[C@H]3C2)nc(N)n1 (racemic) [Example 25, N^4-Methyl-6-[(4aR*,7aR*)-octahydro-6H-pyrrolo[3,4-b]pyridin-6-yl]pyrimidine-2,4-diamine] | – | – | Ki ([1]; read-out: Method 2 (Ki (nM))): 154 nM
4 | CCNc1cc(N2C[C@H]3CCCN[C@H]3C2)nc(N)n1 (racemic) [Example 26, N^4-Ethyl-6-[(4aR*,7aR*)-octahydro-6H-pyrrolo[3,4-b]pyridin-6-yl]pyrimidine-2,4-diamine] | 30 | – | –
5 | CC(C)CNc1cc(N2C[C@H]3CCCN[C@H]3C2)nc(N)n1 (racemic) [Example 27, N^4-Isobutyl-6-[(4aR*,7aR*)-octahydro-6H-pyrrolo[3,4-b]pyridin-6-yl]pyrimidine-2,4-diamine] | 22.4 | – | –
6 | Nc1nc(NCC2CC2)cc(N2C[C@H]3CCCN[C@H]3C2)n1 (racemic) [Example 28, N^4-(Cyclopropylmethyl)-6-[(4aR*,7aR*)-octahydro-6H-pyrrolo[3,4-b]pyridin-6-yl] pyrimidine-2,4-diamine] | 21.3 | – | –
7 | CC(C)CCNc1cc(N2C[C@H]3CCCN[C@H]3C2)nc(N)n1 (racemic) [Example 29, N^4-(3-Methylbutyl)-6-[(4aR*, 7aR*)-octahydro-6H-pyrrolo [3,4-b]pyridin-6-yl] pyrimidine-2,4-diamine] | 82.9 | – | –
8 | Nc1nc(NC2CC2)cc(N2C[C@H]3CCCN[C@H]3C2)n1 (racemic) [Example 31, N^4-Cyclopropyl-6-[(4aR*,7aR*)-octahydro-6H-pyrrolo[3,4-b]pyridin-6-yl] pyrimidine-2,4-diamine] | 21.1 | – | –
9 | Nc1nc(NC2CCC2)cc(N2C[C@H]3CCCN[C@H]3C2)n1 (racemic) [Example 32, N^4-Cyclobutyl-6-[(4aR*,7aR*)-octahydro-6H-pyrrolo[3,4-b]pyridin-6-yl] pyrimidine-2,4-diamine] | 20.9 | – | –
10 | Nc1nc(NCC2CCCC2)cc(N2C[C@H]3CCCN[C@H]3C2)n1 (racemic) [Example 33, N^4-(Cyclopentylmethyl)-6-[(4aR*,7aR*)-octahydro-6H-pyrrolo[3,4-b]pyridin-6-yl] pyrimidine-2,4-diamine] | 84.1 | – | –
11 | CC(C)(C)CNc1cc(N2C[C@H]3CCCN[C@H]3C2)ncn1 (racemic) [Example 127, N-(2,2-Dimethylpropyl)-6-[(4aR*,7aR*)-octahydro-6H-pyrrolo[3,4-bjpyridin-6-yl]pyrimidin-4-amine] | 65.8 | – | –
12 | c1nc(NCC2CC2)cc(N2CCN(C3CNC3)CC2)n1 [Example 308, 6-(4-Azetidin-3-ylpiperazin-1-yl)-N-(cyclopropylmethyl)pyrimidin-4-amine] | – | – | Method 1, activity at top dose (10 μM) [2]: No activity at top
13 | CN[C@H]1[C@@H]2CN(c3cc(NCCC(C)(C)C)nc(N)n3)C[C@@H]21 [Example 309, N^4-(3,3-Dimethylbutyl)-6-[(1R,5S,6s)-6-(methylamino)-3-azabicyclo[3.1.0]hex-3-yl]pyrimidine-2,4-diamine] | – | – | Method 1, % at 10 μM ([2]; at 10 μM): 26% at 10 μM
14 | C[C@@H]1CN(c2cc(NCC3CC3)nc(N)n2)CCN1 [Example 310, N^4-(Cyclopropylmethyl)-6-[(3R)-3-methylpiperazin-1-yl]pyrim idine-2,4-diamine] | – | – | Method 1, activity at top dose (10 μM) [2]: No activity at top
15 | Nc1nc(NCc2cc(F)ccc2F)cc(N2CC[C@@H](N)C2)n1 [Example 311, 6-[(3R)-3-Aminopyrrolidin-1-yl]-N^4-(2,5-difluorobenzyl)pyrimidine-2,4-diamine] | – | 80 | –
16 | CC(C)(C)CCNc1cc(N2CC(N3CCOCC3)C2)ncn1 [Example 312, N-(3,3-Dimethylbutyl)-6-(3-morpholin-4-ylazetidin-1-yl)pyrimidin-4-amine] | – | 21 | –
17 | CCCNc1cc(N2CCN[C@H](C)C2)ncn1 [Example 313, 6-[(3R)-3-Methylpiperazin-1-yl]-N-propylpyrimidin-4-amine] | – | 70 | –
18 | c1nc(NC2CC2)cc(N2CCCNCC2)n1 [Example 314, N-Cyclopropyl-6-(1,4-diazepan-1-yl)pyrimidin-4-amine] | – | – | Method 1, activity at top dose (10 μM) [2]: No activity at top
19 | c1ccc(CCNc2cc(N[C@H]3CCNC3)ncn2)cc1 [Example 315, N-(2-Phenylethyl)-N′-[(3S)-pyrrolidin-3-yl]pyrimidine-4,6-diamine] | – | – | Ki [2]: 5190 nM
20 | CNC1CN(c2cc(NCc3cc(F)cc(F)c3)nc(N)n2)C1 [Example 316, N^4-(3,5-Difluorobenzyl)-6-[3-(methylamino)azetidin-1-yl]pyrimidine-2,4-diamine] | – | – | Method 1, activity at top dose (10 μM) [2]: No activity at top
21 | CNC1CN(c2cc(NCc3c(F)cccc3F)nc(N)n2)C1 [Example 317, N^4-(2,6-Difluorobenzyl)-6-[3-(methylamino)azetidin-1-yl]pyrimidine-2,4-diamine] | – | – | Method 1, activity at top dose (10 μM) [2]: No activity at top
22 | CC(C)(C)CNc1cc(N2C[C@H]3CCCN[C@H]3C2)nc(N)n1 [Example 318, N^4-(2,2-Dimethylpropyl)-6-[(4aR,7aR)-octahydro-6H-pyrrolo[3,4-b]pyridin-6-yl]pyrimidine-2,4diamine] | – | – | Method 1, activity at top dose (10 μM) [2]: No activity at top
23 | c1nc(NC[C@H]2CCCO2)cc(N[C@H]2CCNC2)n1 [Example 319, N-[(3S)-Pyrrolidin-3-yl]-N′-[(2R)-tetrahydrofuran-2-ylmethyl]pyrimidine-4,6-diamine] | – | – | Ki [2]: 6010 nM
24 | CNc1cc(N2CCC(C)(N)C2)nc(N)n1 (stereo not drawn) [Example 320, 6-(3-Amino-3-methylpyrrolidin-1-yl)-N^4-methylpyrimidine-2,4-diamine] | – | – | Method 1, % at 6.3 μM ([2]; at 6.3 μM): 46% at 6.3 μM
25 | CNc1cc(N2CCCC(NC)C2)nc(N)n1 (stereo not drawn) [Example 321, N^4-Methyl-6-[3-(methylamino)piperidin-1-yl]pyrimidine-2,4-diamine] | – | 15 | –
26 | Nc1nc(NCC2CC2)cc(N2CC(N3CCOCC3)C2)n1 [Example 322, N^4-(Cyclopropylmethyl)-6-(3-morpholin-4-ylazetidin-1-yl)pyrimidine-2,4-diamine] | – | 57 | –
27 | CCCNc1cc(N2CCCC(NC)C2)nc(N)n1 (stereo not drawn) [Example 323, 6-[3-(Methylamino)piperidin-1-yl]-N^4-propylpyrimidine-2,4-diamine] | – | 85 | –
28 | CCNc1cc(N2CCCC(NC)C2)nc(N)n1 (stereo not drawn) [Example 324, N^4-Ethyl-6-[3-(methylamino)piperidin-1-yl]pyrimidine-2,4-diamine] | – | 55 | –
29 | CN[C@@H]1CCN(c2cc(NCc3ccc(F)cc3F)nc(N)n2)C1 [Example 325, N^4-(2,4-Difluorobenzyl)-6-[(3R)-3-(methylamino)pyrrolidin-1-yl]pyrimidine-2,4-diamine] | – | 43 | –
30 | CN[C@@H]1CCN(c2ncnc(NCC(C)(C)C)c2C)C1 [Example 326, N-(2,2-Dimethylpropyl)-5-methyl-6-[(3R)-3-(methylamino)pyrrolidin-1-yl]pyrimidin-4-amine] | – | 48 | –
